Data set [1] relates to SH-SY5Y, HeLa. Nature of the data set: MTT cell proliferation assay and trypan blue count (cell viability). In kind it is cell-based. The settings on record: cells treated for 48 and 72 hours; read-out: IC50 values (inhibition of cellular proliferation, MTT assay and trypan blue assay). How it is done: Cell based assays were used to evaluate the possible cytotoxic effects of some compounds. To measure cytotoxic effects two different methods were used, a MTT cell proliferation assay and trypan blue count.
The Trypan blue assay is used to determine the number of viable cells present in a cell suspension. […] Briefly, 8×10^5 cells (SH-SY5Y, HeLa; obtained from ATCC, LGC standards, Sesto San Giovanni) were seeded in 24-well plates and treated for 48 and 72 hours. After the treatments, cells were stained with trypan blue and counted.
To analyze cell viability was used the colorimetric 3-(4,5-dimethylthiazol-2-yl)-2,5-diphenyltetrazolium bromide (MTT) method. The assay is based on the cleavage of the yellow tetrazolium salt MTT to purple formazan crystals by metabolic active cells. Since reduction of MTT can only occur in metabolically active cells, the level of activity is a measure of the viability of cells and conversely the cytotoxic effects of various treatments. Briefly, 8×10^5 cells (SH-SY5Y, code number CRL-2266; and HeLa, code number CCL-2) were seeded in 24-well plates and treated for 48 and 72 hours. Compounds were dissolved in DMSO and were added to the cells to give a final DMSO concentration no greater than 0.5%. Cells were washed once in Locke buffer and 300 μl of MTT (250 μg/ml in Locke buffer) were added before returning the cells to the incubator for 1 h to allow the formation of the purple formazan crystals. After 1 h, 600 μl of isopropanol/0.1 M HCl were added to each well, and the absorbance was read at 570 nm in a plate reader (Victor3V, PerkinElmer Life Sciences). For some compounds a dose response curve and IC50 for the effects on cell viability and proliferation were calculated. Cell lines used were originally purchased from ATCC (LGC standards. Sesto San Giovanni).
To evaluate the ability of each compound to inhibit cellular proliferation, cells were seeded in 24-well plates and treated for 48 and 72 hours. After the treatments the MTT assay and trypan blue assay were performed.
(In general: Tetrazolium assays rely on reduction of a dye to a coloured formazan, in cell work by metabolically active cells.)

Data set [2] addresses T1, NAMPT (Homo sapiens, UniProt P43490).
T1 construct: endogenous in cells; host or cells: SH-SY5Y and HeLa
In words: Direct inhibition of NAMPT enzymatic activity (Cyclex NAMPT colorimetric Assay Kit). Format: biochemical. The following applies: as assessed with a cycling assay. How it is done: Determination of the direct activity of compounds on NAMPT was performed using a commercial kit, Cyclex NAMPT colorimetric Assay Kit.

T1 sequence (P43490 whole entry): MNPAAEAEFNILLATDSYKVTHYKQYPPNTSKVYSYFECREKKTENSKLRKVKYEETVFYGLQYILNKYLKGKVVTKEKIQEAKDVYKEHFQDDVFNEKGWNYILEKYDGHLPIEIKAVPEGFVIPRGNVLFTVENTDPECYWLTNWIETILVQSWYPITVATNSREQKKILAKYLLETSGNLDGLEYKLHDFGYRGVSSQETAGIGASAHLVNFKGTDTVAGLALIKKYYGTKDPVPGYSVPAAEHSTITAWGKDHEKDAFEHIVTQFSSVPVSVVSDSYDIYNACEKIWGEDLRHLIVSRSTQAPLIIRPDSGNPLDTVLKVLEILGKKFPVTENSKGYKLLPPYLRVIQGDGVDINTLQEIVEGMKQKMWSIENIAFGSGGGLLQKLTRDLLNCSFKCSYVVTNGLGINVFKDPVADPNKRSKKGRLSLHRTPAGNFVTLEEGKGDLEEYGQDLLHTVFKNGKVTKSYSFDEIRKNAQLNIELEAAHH

On to `O=C(NCCCCCCCCn1cc(-c2cccnc2)nn1)Nc1ccccc1-c1ccccc1` [1-([1,1′-biphenyl]-2-il)-3-(8-(4-(pyridin-3-yl)-1H-1,2,3-triazol-1-yl)octyl)urea], for which the melting point (usually the temperature, or range, at which the solid turns liquid) fell in the range of 90 to 95 °C. The IC50 in data set [1] is below 300 nM. In the case of `O=C(NCCCCCCn1cc(-c2cccnc2)nn1)Nc1ccccc1-c1ccccc1` [1-([1,1′-biphenyl]-2-yl)-3-(6-(4-(pyridin-3-yl)-1H-1,2,3-triazol-1-yl)hexyl)urea], in data set [1], the IC50 is below 300 nM. Moreover, the “inhibition of the enzymatic activity of NAMPT” value in data set [2] was “able to inhibit”.

As to `O=S(=O)(NCCc1ccc(Cn2cc(-c3cccnc3)nn2)cc1)c1ccccc1Br` [2-bromo-N-(4-((4-(pyridin-3-yl)-1H-1,2,3-triazol-1-yl)methyl)phenethyl)benzenesulfonamide], the IC50 in data set [1] is below 300 nM.

For the molecule `O=S(=O)(NCCCCCCn1cc(-c2cccnc2)nn1)c1ccccc1Br` [2-bromo-N-(6-(4-(pyridin-3-yl)-1H-1,2,3-triazol-1-yl)hexyl)benzene sulfonamide], in data set [1], the IC50 is below 300 nM. Take `O=S(=O)(NCCCCCCCn1cc(-c2cccnc2)nn1)c1ccccc1Br` [2-bromo-N-(7-(4-(pyridin-3-yl)-1H-1,2,3-triazol-1-yl)heptyl)benzene sulfonamide]: the IC50 in data set [1] was below 300 nM. Turning to `O=S(=O)(NCCCCCCCCn1cc(-c2cccnc2)nn1)c1ccccc1Br` [2-bromo-N-(8-(4-(pyridin-3-yl)-1H-1,2,3-triazol-1-yl)octyl)benzene sulfonamide], in data set [1], the IC50 is below 300 nM. In turn, `O=C(NCCCCCCCn1cc(-c2cccnc2)nn1)c1ccccc1I` [2-iodo-N-(7-(4-(pyridin-3-yl)-1H-1,2,3-triazol-1-yl)heptyl)benzamide] gave a melting point of 106 to 108 °C. For the same molecule, the IC50 in data set [1] is below 300 nM. `O=C(O)c1cccc(-c2ccccc2OCCCCCCn2cc(-c3cccnc3)nn2)c1` [2′-((6-(4-(pyridin-3-yl)-1H-1,2,3-triazol-1-yl)hexyl)oxy)-[1,1′-biphenyl]-3-carboxylic acid]: the IC50 in data set [1] is below 300 nM.

Take `O=C(O)c1ccc(-c2ccccc2OCCCCCCn2cc(-c3cccnc3)nn2)cc1` [2′-((6-(4-(pyridin-3-yl)-1H-1,2,3-triazol-1-yl)hexyl)oxy)-[1,1′-biphenyl]-4-carboxylic acid]: the IC50 in data set [1] is below 300 nM.

`O=C(O)c1ccc(-c2ccccc2C(=O)NCCCCCCCn2cc(-c3cccnc3)nn2)cc1` [2′-((7-(4-(pyridin-3-yl)-1H-1,2,3-triazol-1-yl)heptyl)carbamoyl)-[1,1′-biphenyl]-4-carboxylic acid]: the IC50 in data set [1] is below 300 nM. `c1ccc(-c2ccccc2-c2cn(CCc3ccc(Cn4cc(-c5cccnc5)nn4)cc3)nn2)cc1` [3-(1-(4-(2-(4-([1,1′-biphenyl]-2-yl)-1H-1,2,3-triazol-1-yl)ethyl)benzyl)-1H-1,2,3-triazol-4-yl)pyridine] displayed a melting point of 139 to 141 °C. Besides, in data set [1], the IC50 was below 300 nM. In turn, `c1ccc(-c2ccccc2OCc2ccc(CCn3cc(-c4cccnc4)nn3)cc2)cc1` [3-(1-(4-(([1,1′-biphenyl]-2-yloxy)methyl)phenethyl)-1H-1,2,3-triazol-4-yl)pyridine] displayed a melting point of 136 to 137 °C. The IC50 in data set [1] is below 300 nM.

`c1ccc(-c2ccccc2-c2cn(CCCCCCn3cc(-c4cccnc4)nn3)nn2)cc1` [3-(1-(6-(4-([1,1′-byphenyl]-2-yl)-1H-1,2,3-triazol-1-yl)hexyl)-1H-1,2,3-triazol-4-yl)pyridine] returned a melting point of 139 to 140 °C. Moreover, the IC50 in data set [1] was below 300 nM. `c1ccc(-c2cn(CCCCCCn3cc(-c4cccnc4)nn3)nn2)cc1` [3-(1-(6-(4-phenyl-1H-1,2,3-triazol-1-yl)hexyl)-1H-1,2,3-triazol-4-yl)pyridine] yielded a melting point of 172 to 173 °C.

Turning to `Cc1ccccc1-c1ccccc1OCCCCCCn1cc(-c2cccnc2)nn1` [3-(1-(6-((2′-methyl-[1,1′-biphenyl]-2-yl)oxy)hexyl)-1H-1,2,3-triazol-4-yl)pyridine], in data set [1], the IC50 was below 300 nM.

With `c1ccc(OCCCCCCn2cc(-c3cccnc3)nn2)cc1` [3-(1-(6-phenoxyhexyl)-1H-1,2,3-triazol-4-yl)pyridine], the melting point is 74 to 75 °C. `c1ccc(-c2cn(CCCCCCCn3cc(-c4cccnc4)nn3)nn2)cc1` [3-(1-(7-(4-phenyl-1H-1,2,3-triazol-1-yl)heptyl)-1H-1,2,3-triazol-4-yl)pyridine] yielded a melting point of 143 to 144 °C. Turning to `c1ccc(OCCCCCCCn2cc(-c3cccnc3)nn2)cc1` [3-(1-(7-phenoxyheptyl)-1H-1,2,3-triazol-4-yl)pyridine], the melting point was in the range of 90.5 to 91 °C.

The molecule `c1ccc(-c2ccccc2-c2cn(CCCCCCCCn3cc(-c4cccnc4)nn3)nn2)cc1` [3-(1-(8-(4-([1,1′-byphenyl]-2-yl)-1H-1,2,3-triazol-1-yl)octyl)-1H-1,2,3-triazol-4-yl)pyridine] came in with a melting point of 136 to 140 °C. For the same molecule, the IC50 in data set [1] was below 300 nM. Molecule `c1ccc(OCCCCCCCCn2cc(-c3cccnc3)nn2)cc1` [3-(1-(8-phenoxyoctyl)-1H-1,2,3-triazol-4-yl)pyridine] registered a melting point of 102 to 103 °C. `O=C(Nc1ccccc1-c1ccccc1)OCCc1ccc(Cn2cc(-c3cccnc3)nn2)cc1` [4-((4-(pyridin-3-yl)-1H-1,2,3-triazol-1-yl)methyl)phenethyl[1,1′-biphenyl]-2-ylcarbamate] registered a melting point of 131 to 132 °C. The IC50 in data set [1] was below 300 nM. `O=C(Nc1ccccc1-c1ccccc1)OCCCCCCCCn1cc(-c2cccnc2)nn1` [8-(4-(pyridin-3-yl)-1H-1,2,3-triazol-1-yl)octyl[1,1′-biphenyl]-2-ylcarbamate] came in with a melting point of 81 to 85 °C. Besides, the IC50 in data set [1] is below 300 nM. As for `O=C(NCCCc1ccc(-n2cc(-c3cccnc3)nn2)cc1)c1ccccc1-c1ccccc1` [N-(3-(4-(4-(pyridin-3-yl)-1H-1,2,3-triazol-1-yl)phenyl)propyl)-[1,1′-biphenyl]-2-carboxamide], the melting point is 202 to 203 °C. In addition, in data set [1], the IC50 is below 300 nM. On to `O=C(NCc1ccc(CCn2cc(-c3cccnc3)nn2)cc1)c1ccccc1-c1ccccc1` [N-(4-(2-(4-(pyridin-3-yl)-1H-1,2,3-triazol-1-yl)ethyl)benzyl)-[1,1′-biphenyl]-2-carboxamide], for which the melting point was in the range of 204 to 205 °C. The IC50 in data set [1] is below 300 nM. In the case of `O=S(=O)(NCCc1ccc(Cn2cc(-c3cccnc3)nn2)cc1)c1ccccc1-c1ccccc1` [N-(4-((4-(pyridin-3-yl)-1H-1,2,3-triazol-1-yl)methyl)phenethyl)-[1,1′-biphenyl]-sulfonamide], the IC50 in data set [1] is below 300 nM. As to `O=S(=O)(NCCCCCCn1cc(-c2cccnc2)nn1)c1ccccc1-c1ccccc1` [N-(6-(4-(pyridin-3-yl)-1H-1,2,3-triazol-1-yl)hexyl) biphenyl-2-sulfonamide], the IC50 in data set [1] was below 300 nM. Regarding `O=S(=O)(NCCCCCCCn1cc(-c2cccnc2)nn1)c1ccccc1-c1ccccc1` [N-(7-(4-(pyridin-3-yl)-1H-1,2,3-triazol-1-yl)heptyl) biphenyl-2-sulfonamide], in data set [1], the IC50 is below 300 nM.

With `O=C(NCCCCCCCn1cc(-c2cccnc2)nn1)c1ccccc1` [N-(7-(4-(pyridin-3-yl)-1H-1,2,3-triazol-1-yl)heptyl)benzamide], the melting point lay within 123 to 124 °C. With `c1ccc(-c2ccccc2CNCCCCCCn2cc(-c3cccnc3)nn2)cc1` [N-([1,1′-biphenyl]-2-ylmethyl)-6-(4-(pyridin-3-yl)-1H-1,2,3-triazol-1-yl)hexan-1-amine], the melting point fell in the range of 55 to 58 °C. In addition, the IC50 in data set [1] was below 300 nM.

Consider `c1ccc(-c2ccccc2CNCCCCCCCn2cc(-c3cccnc3)nn2)cc1` [N-([1,1′-biphenyl]-2-ylmethyl)-7-(4-(pyridin-3-yl)-1H-1,2,3-triazol-1-yl)heptan-1-amine], for which the melting point is 86 to 91 °C. Further, in data set [1], the IC50 is below 300 nM. With `c1ccc(-c2ccccc2CNCCCCCCCCn2cc(-c3cccnc3)nn2)cc1` [N-([1,1′-biphenyl]-2-ylmethyl)-8-(4-(pyridin-3-yl)-1H-1,2,3-triazol-1-yl)octan-1-amine], in data set [1], the IC50 was below 300 nM. Still for that read-out and setting: next, `c1ccc(-c2ccccc2CNCCc2ccc(Cn3cc(-c4cccnc4)nn3)cc2)cc1` [N-([1,1′-biphenyl]-ylmethyl)-2-(4-((4-(pyridin-3-yl)-1H-1,2,3-triazol-1-yl)methy)phenyl)ethanamine]: below 300 nM. The molecule `NC(=O)c1ccccc1-c1ccccc1C(=O)NCCCCCCCn1cc(-c2cccnc2)nn1` [N^2-(7-(4-(pyridin-3-yl)-1H-1,2,3-triazol-1-yl)heptyl)-[1,1′-biphenyl]-2,2′-dicarboxamide] yielded a melting point of 100 to 101 °C.

The values above are taken from patent publication US20160075682A1, “INHIBITORS OF NICOTINAMIDE PHOSPHORIBOSYLTRANSFERASE, COMPOSITIONS, PRODUCTS AND USES THEREOF” (UNIVERSITÀ DEGLI STUDI DEL PIEMONTE ORIENTALE "AMEDEO …, priority 2013, published 2016).
